Here are results for 27 compounds from patent publication US8288419B2, “Aminopyrazole derivatives” (Actelion Pharmaceuticals, Ltd, priority 2007, dated 2012).

The structures appear in SMILES notation.

The target of this assay is T1, recombinant human ALX receptor (Homo sapiens, UniProt P25090).
T1 construct: expressed in transfected cells; host or cells: HEK293 (HEK293-hALXR-Gα16)
T1 sequence (P25090 1-351): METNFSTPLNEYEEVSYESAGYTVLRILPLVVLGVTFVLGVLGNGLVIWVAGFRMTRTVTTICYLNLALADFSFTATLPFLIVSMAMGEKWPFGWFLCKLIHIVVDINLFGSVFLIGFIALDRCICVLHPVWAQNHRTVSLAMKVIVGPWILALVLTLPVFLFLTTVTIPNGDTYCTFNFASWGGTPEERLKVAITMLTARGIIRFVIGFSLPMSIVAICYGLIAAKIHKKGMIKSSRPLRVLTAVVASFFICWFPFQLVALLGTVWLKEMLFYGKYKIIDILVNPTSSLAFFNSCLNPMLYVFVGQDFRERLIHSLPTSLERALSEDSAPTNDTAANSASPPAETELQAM
Put plainly: Intracellular calcium measurements (FLIPR), ALX receptor agonistic activity. The conditions noted are these: HEK293-hALXR-Gα16 cells, Fluo-4 calcium fluorescence, normalized to 10 nM WKYMVm. Format: cell-based. As to the method: The ALX receptor agonistic activity of the compounds of formula (I) is determined in accordance with the following experimental method.
Intracellular Calcium Measurements:
Cells expressing recombinant human ALX receptor and the G-protein Gα16 (HEK293-hALXR-Gα16) were grown to 80% confluency in Growing Medium (GM). […] Stock solutions of test compounds were made up at a concentration of 10 mM in DMSO, and serially diluted in AB to concentrations required for activation dose response curves. WKYMVm (Phoenix Peptides) was used as a reference agonist. A FLIPR384 instrument (Molecular Devices) was operated according to the manufacturer's standard instructions, adding 4 μl of test compound dissolved at 10 mM in DMSO and diluted prior to the experiment in assay buffer to obtain the desired final concentration. Changes in fluorescence were monitored before and after the addition of test compounds at lex=488 nm and lem=540 nm. Emission peak values above base level after compounds addition were exported after base line subtraction. Values were normalized to high-level control (WKYMVm compound, 10 nM final concentration) after subtraction of the base line value (AB addition). The program XLlfit 3.0 (IDBS) was used to fit the data to a single site dose response curve of the equation (A+((B−A)/(1+((C/x)^D)))) and to calculate the EC50 values.
(In general: Calcium assays in cells follow changes in intracellular calcium, usually with a dye or a luminescent sensor.)
For the compound `CC(=O)c1ccc(Cn2ccc(NC(=O)c3ncoc3-c3cccc(C(=O)OC(C)(C)C)c3)n2)o1` [Example 381, 3-{4-[1-(5-Acetyl-furan-2-ylmethyl)-1H-pyrazol-3-ylcarbamoyl]-oxazol-5-yl}-benzoic acid tert-butyl ester], the concentration for a half-maximal effect (EC50) stood at 35 nM.

With `CC(=O)c1cncc(Cn2cc(NC(=O)OCc3ccccc3Cl)cn2)c1` [Example 382, [1-(5-Acetyl-pyridin-3-ylmethyl)-1H-pyrazol-4-yl]-carbamic acid 2-chloro-benzyl ester], the EC50 is 401 nM.

With `CC(=O)c1csc(Cn2cc(NC(=O)/C=C/c3ccc(C(F)(F)F)cc3)cn2)n1` [Example 389, (E)-N-[1-(4-Acetyl-thiazol-2-ylmethyl)-1H-pyrazol-4-yl]-3-(4-trifluoromethyl-phenyl)-acrylamide], the EC50 came out at 79 nM.

On to `CC(=O)c1ccc(Cn2ccc(NC(=O)c3nc(CN)oc3-c3ccccc3)n2)o1` [Example 390, 2-Aminomethyl-5-phenyl-oxazole-4-carboxylic acid [1-(5-acetyl-furan-2-ylmethyl)-1H-pyrazol-3-yl]-amide], for which the EC50 amounted to 727 nM.

In the case of `CC(=O)c1ccc(Cn2ccc(NC(=O)c3nc(C)oc3-c3cccc(OC(F)(F)F)c3)n2)s1` [Example 392, 2-Methyl-5-(3-trifluoromethoxy-phenyl)-oxazole-4-carboxylic acid [1-(5-acetyl-thiophen-2-ylmethyl)-1H-pyrazol-3-yl]-amide], the EC50 was 237 nM.

`CC(=O)c1ccc(Cn2cc(NC(=O)c3nc(C)sc3-c3cccc(C)c3)cn2)s1` [Example 395, 2-Methyl-5-m-tolyl-thiazole-4-carboxylic acid [1-(5-acetyl-thiophen-2-ylmethyl)-1H-pyrazol-4-yl]-amide]: the EC50 turned out to be 170 nM.

In the case of `CC(=O)c1ccc(Cn2cc(NC(=O)c3ncoc3-c3cccc(C#N)c3)cn2)s1` [Example 397, 5-(3-Cyano-phenyl)-oxazole-4-carboxylic acid [1-(5-acetyl-thiophen-2-ylmethyl)-1H-pyrazol-4-yl]-amide], the EC50 amounted to 23 nM.

Take `CC(=O)c1ccc(Cn2cc(NC(=O)c3nc(C4CC4)oc3-c3ccccc3)cn2)s1` [Example 401, 2-Cyclopropyl-5-phenyl-oxazole-4-carboxylic acid [1-(5-acetyl-thiophen-2-ylmethyl)-1H-pyrazol-4-yl]-amide]: the EC50 was determined as 49 nM.

With `CC(=O)c1cc(Cn2cc(NC(=O)OCc3ccccc3Cl)cn2)ccn1` [Example 407, [1-(2-Acetyl-pyridin-4-ylmethyl)-1H-pyrazol-4-yl]-carbamic acid 2-chloro-benzyl ester], the EC50 was found to be 58 nM.

On to `CC(=O)c1cc(Cn2cc(NC(=O)c3ncoc3-c3ccccc3)cn2)cs1` [Example 408, 5-Phenyl-oxazole-4-carboxylic acid [1-(5-acetyl-thiophen-3-ylmethyl)-1H-pyrazol-4-yl]-amide], for which the EC50 worked out at 83 nM.

`CC(=O)c1nc(Cn2cc(NC(=O)OCc3ccccc3Cl)cn2)cs1` [Example 409, [1-(2-Acetyl-thiazol-4-ylmethyl)-1H-pyrazol-4-yl]-carbamic acid 2-chloro-benzyl ester]: the concentration for a half-maximal effect (EC50) came to 805 nM.

Regarding `CC(=O)c1ccc(Cn2cc(NC(=O)c3ncoc3-c3ccnc(F)c3)cn2)o1` [Example 412, 5-(2-Fluoro-pyridin-4-yl)-oxazole-4-carboxylic acid [1-(5-acetyl-furan-2-ylmethyl)-1H-pyrazol-4-yl]-amide], the EC50 turned out to be 179 nM.

For the compound `CS(=O)(=O)c1ccc(Cn2cc(NC(=O)c3ncoc3-c3ccccc3)cn2)o1` [Example 413, 5-Phenyl-oxazole-4-carboxylic acid [1-(5-methanesulfonyl-furan-2-ylmethyl)-1H-pyrazol-4-yl]-amide], the EC50 came out at 486 nM.

For the compound `COCc1nc(C(=O)Nc2cnn(Cc3ccc(C(C)=O)o3)c2)c(-c2ccccc2)o1` [Example 416, 2-Methoxymethyl-5-phenyl-oxazole-4-carboxylic acid [1-(5-acetyl-furan-2-ylmethyl)-1H-pyrazol-4-yl]-amide], the EC50 turned out to be 61 nM.

Consider `CC(=O)c1ccc(Cn2cc(NC(=O)c3ncoc3-c3cccc(C(F)(F)F)n3)cn2)o1` [Example 419, 5-(6-Trifluoromethyl-pyridin-2-yl)-oxazole-4-carboxylic acid [1-(5-acetyl-furan-2-ylmethyl)-1H-pyrazol-4-yl]-amide], for which the half-maximal effective concentration (EC50) came to 66 nM.

As for `CC(=O)c1ccc(Cn2cc(NC(=O)c3ncoc3-c3ccno3)cn2)o1` [Example 420, 5-Isoxazol-5-yl-oxazole-4-carboxylic acid [1-(5-acetyl-furan-2-ylmethyl)-1H-pyrazol-4-yl]-amide], the EC50 came to 388 nM.

`CC(=O)c1ccc(Cn2cc(NC(=O)c3nc(C(C)C)oc3-c3ccccc3)cn2)o1` [Example 424, 2-Isopropyl-5-phenyl-oxazole-4-carboxylic acid [1-(5-acetyl-furan-2-ylmethyl)-1H-pyrazol-4-yl]-amide]: the EC50 is 114 nM.

Consider `CC(=O)c1ccc(Cn2cc(NC(=O)c3nc(Cc4ccccc4)oc3-c3ccccc3)cn2)o1` [Example 432, 2-Benzyl-5-phenyl-oxazole-4-carboxylic acid [1-(5-acetyl-furan-2-ylmethyl)-1H-pyrazol-4-yl]-amide], for which the half-maximal effective concentration (EC50) was 200 nM.

As for `CC(=O)c1cnc(Cn2cc(NC(=O)c3ncoc3-c3ccccc3)cn2)s1` [Example 435, 5-Phenyl-oxazole-4-carboxylic acid [1-(5-acetyl-thiazol-2-ylmethyl)-1H-pyrazol-4-yl]-amide], the concentration for a half-maximal effect (EC50) was found to be 445 nM.

On to `CC(=O)c1ncc(Cn2cc(NC(=O)c3ncoc3-c3ccccc3)cn2)s1` [Example 437, 5-Phenyl-oxazole-4-carboxylic acid [1-(2-acetyl-thiazol-5-ylmethyl)-1H-pyrazol-4-yl]-amide], for which the 50% effective concentration (EC50) was 99 nM.

For the compound `CC(=O)c1ncc(Cn2ccc(NC(=O)c3ncoc3-c3ccccc3)n2)o1` [Example 440, 5-Phenyl-oxazole-4-carboxylic acid [1-(2-acetyl-oxazol-5-ylmethyl)-1H-pyrazol-3-yl]-amide], the half-maximal effective concentration (EC50) was 143 nM.

In the case of `CC(=O)c1csc(Cn2cc(NC(=O)OCc3ccccc3Cl)cn2)c1` [Example 442, [1-(4-Acetyl-thiophen-2-ylmethyl)-1H-pyrazol-4-yl]-carbamic acid 2-chloro-benzyl ester], the EC50 was determined as 94 nM.

Take `CC(=O)c1csc(Cn2ccc(NC(=O)c3ncoc3-c3cccc(N(C)C)c3)n2)n1` [Example 449, 5-(3-Dimethylamino-phenyl)-oxazole-4-carboxylic acid [1-(4-acetyl-thiazol-2-ylmethyl)-1H-pyrazol-3-yl]-amide]: the EC50 is 182 nM.

On to `CC(F)(F)c1csc(Cn2ccc(NC(=O)c3ncoc3-c3ccccc3)n2)n1` [Example 461, 5-Phenyl-oxazole-4-carboxylic acid {1-[4-(1,1-difluoro-ethyl)-thiazol-2-ylmethyl]-1H-pyrazol-3-yl}-amide], for which the EC50 turned out to be 1090 nM.

`CC(=O)CCCCn1cc(NC(=O)OCc2nc3ccccc3s2)cn1` [Example 462, [1-(5-Oxo-hexyl)-1H-pyrazol-4-yl]-carbamic acid benzothiazol-2-ylmethyl ester]: the EC50 was found to be 43 nM.

Consider `CC(=O)c1cnc(Cn2ccc(NC(=O)c3ncoc3-c3ccccc3)n2)o1` [Example 465, 5-Phenyl-oxazole-4-carboxylic acid [1-(5-acetyl-oxazol-2-ylmethyl)-1H-pyrazol-3-yl]-amide], for which the EC50 came to 73 nM.

For the compound `CC(=O)c1nc(Cn2cc(NC(=O)OCc3ccccc3Cl)cn2)co1` [Example 466, [1-(2-Acetyl-oxazol-4-ylmethyl)-1H-pyrazol-4-yl]-carbamic acid 2-chloro-benzyl ester], the EC50 worked out at 34 nM.

The term EC50 denotes the concentration needed to bring the measured effect to its halfway point.
